Assays:
Vitis vinifera [1] = test: Inhibition of photosynthesis in Vitis vinifera cv. Pinot noir assessed as apparent quantum yield of CO2 fixation at 6 mM measured 7 days post compound application (reference value: 0.07 +/- 0.01 no unit) umol/m2/s); assay type: organism-based; settings: in vivo, 168 h, 6000 µM
Vitis vinifera [2] = test: Toxicity in Vitis vinifera cv. Pinot noir assessed as effect on gas exchanges at 1.2 to 30 mM measured 14 days post compound application; assay type: organism-based; settings: in vivo, 336 h, 30000 µM
Vitis vinifera [3] = test: Inhibition of photosynthesis in Vitis vinifera cv. Pinot noir assessed as reduction in net photosynthetic rate at 6 mM measured 1 day post compound application; assay type: organism-based; settings: in vivo, 24 h, 6000 µM
Vitis vinifera [4] = test: Effect on maximum efficiency of PSII photochemistry after dark-adaptation in Vitis vinifera cv. Pinot noir at 1.2 to 30 mM measured 7 days post compound application; assay type: ADME, organism-based; settings: in vivo, 168 h, 30000 µM
Vitis vinifera [5] = test: Inhibition of photosynthesis in Vitis vinifera cv. Pinot noir assessed as increase in mitochondrial respiration in the light at 30 mM measured 7 days post compound application relative to untreated control; assay type: organism-based; settings: in vivo, 168 h, 30000 µM
Vitis vinifera [6] = test: Inhibition of photosynthesis in Vitis vinifera cv. Pinot noir assessed as increase in CO2 compensation point at 30 mM measured 7 days post compound application relative to untreated control; assay type: organism-based; settings: in vivo, 168 h, 30000 µM
photosystem 2 [7] = test: Inhibition of photosynthesis in Vitis vinifera cv. Pinot noir assessed as reduction in relative quantum yield of photo system 2 at 6 mM measured 7 days post compound application relative to untreated control; assay type: organism-based; settings: in vivo
Vitis vinifera [8] = test: Inhibition of photosynthesis in Vitis vinifera cv. Pinot noir assessed as increase in ratio of apparent quantum yield of photo system 2 to apparent quantum yield yield of CO2 fixation at 1.2 to 30 mM measured 7 days post compound application; assay type: organism-based; set-up: scale not given: the % may be the effect or the level left; settings: in vivo, 168 h, 30000 µM
Vitis vinifera [9] = test: Inhibition of photosynthesis in Vitis vinifera cv. Pinot noir assessed as light compensation point at 1.2 mM measured 7 days post compound application (reference value: 22.6 +/- 3.1 umol/mol); assay type: organism-based; settings: in vivo, 168 h, 1200 µM
Vitis vinifera [10] = test: Inhibition of photosynthesis in Vitis vinifera cv. Pinot noir assessed as CO2 compensation point at 6 mM measured 7 days post compound application (reference value: 74.8 +/- 12.7 umol/mol); assay type: organism-based; settings: in vivo, 168 h, 6000 µM
Vitis vinifera [11] = test: Inhibition of photosynthesis in Vitis vinifera cv. Pinot noir assessed as light compensation point at 6 mM measured 7 days post compound application (reference value: 22.6 +/- 3.1 umol/mol); assay type: organism-based; settings: in vivo, 168 h, 6000 µM
[12] = Inhibition of photosynthesis in Vitis vinifera cv. Pinot noir assessed as reduction in net photosynthetic rate at 6 mM measured 7 days post compound application; assay type: organism-based; settings: in vivo
Vitis vinifera [13] = test: Effect on total nonphotochemical quenching in Vitis vinifera cv. Pinot noir at 1.2 to 30 mM measured 7 days post compound application; assay type: ADME, organism-based; settings: in vivo, 168 h, 30000 µM
Vitis vinifera [14] = test: Effect on photochemical quenching in Vitis vinifera cv. Pinot noir at 1.2 to 30 mM measured 7 days post compound application; assay type: ADME, organism-based; settings: in vivo, 168 h, 30000 µM
[15] = Inhibition of photosynthesis in Vitis vinifera cv. Pinot noir assessed as reduction in Hill reaction activity 6 mM measured 7 days post compound application relative to untreated control; assay type: organism-based; settings: in vivo
Vitis vinifera [16] = test: Inhibition of photosynthesis in Vitis vinifera cv. Pinot noir assessed as intercellular CO2 concentration-saturated net CO2 assimilation rate at 1.2 mM measured 7 days post compound application (reference value: 11.3 +/- 0.8 umol/m2/s); assay type: organism-based; settings: in vivo, 168 h, 1200 µM
Vitis vinifera [17] = test: Inhibition of photosynthesis in Vitis vinifera cv. Pinot noir assessed as light compensation point at 30 mM measured 7 days post compound application (reference value: 22.6 +/- 3.1 umol/mol); assay type: organism-based; settings: in vivo, 168 h, 30000 µM
[18] = Inhibition of photosynthesis in Vitis vinifera cv. Pinot noir assessed as reduction in net photosynthetic rate at 30 mM measured 7 days post compound application; assay type: organism-based; settings: in vivo
Vitis vinifera [19] = test: Inhibition of photosynthesis in Vitis vinifera cv. Pinot noir assessed as apparent quantum yield of CO2 fixation at 1.2 mM measured 7 days post compound application (reference value: 0.07 +/- 0.01 no unit) umol/m2/s); assay type: organism-based; settings: in vivo, 168 h, 1200 µM
Vitis vinifera [20] = test: Effect on net photosynthetic rate in Vitis vinifera cv. Pinot noir at 1.2 to 30 mM measured 2 to 4 days post compound application; assay type: ADME, organism-based; settings: in vivo, 30000 µM
Vitis vinifera [21] = test: Inhibition of photosynthesis in Vitis vinifera cv. Pinot noir assessed as PPFD-saturated net CO2 assimilation rate at 6 mM measured 7 days post compound application (reference value: 8.9 +/- 1.5 umol/m2/s); assay type: organism-based; settings: in vivo, 168 h, 6000 µM
Vitis vinifera [22] = test: Effect on stomatal conductance in Vitis vinifera cv. Pinot noir at 1.2 to 30 mM measured 7 days post compound application; assay type: ADME, organism-based; settings: in vivo, 168 h, 30000 µM
Vitis vinifera [23] = test: Inhibition of photosynthesis in Vitis vinifera cv. Pinot noir assessed as intercellular CO2 concentration-saturated net CO2 assimilation rate at 30 mM measured 7 days post compound application (reference value: 11.3 +/- 0.8 umol/m2/s); assay type: organism-based; settings: in vivo, 168 h, 30000 µM
photosystem 2 [24] = test: Inhibition of photosynthesis in Vitis vinifera cv. Pinot noir assessed as reduction in relative quantum yield of photo system 2 at 30 mM measured 7 days post compound application relative to untreated control; assay type: organism-based; settings: in vivo
Vitis vinifera [25] = test: Increase in […] CO2 level in Vitis vinifera cv. Pinot noir at 30 mM measured 7 days post compound application; assay type: ADME, organism-based; settings: in vivo, 168 h, 30000 µM
Vitis vinifera [26] = test: Effect on stomatal conductance in Vitis vinifera cv. Pinot noir at 1.2 to 30 mM measured 1 day post compound application; assay type: ADME, organism-based; settings: in vivo, 24 h, 30000 µM
photosystem 2 [27] = test: Inhibition of photosynthesis in Vitis vinifera cv. Pinot noir assessed as reduction in relative quantum yield of photo system 2 at 1.2 mM measured 7 days post compound application relative to untreated control; assay type: organism-based; settings: in vivo

N#Cc1c[nH]cc1-c1cccc2c1OC(F)(F)O2 [FLUDIOXONIL]
Activity (Vitis vinifera [1]): 0.04
Activity (Vitis vinifera [2]): Non-toxic
Activity (Vitis vinifera [3]): Toxic
Activity (Vitis vinifera [4]): Non-toxic
fold change (FC) (Vitis vinifera [5]): 3.5
fold change (FC) (Vitis vinifera [6]): 3.3
inhibition at 168 h, 6000 µM (photosystem 2 [7]): 7%
Activity (Vitis vinifera [8]): 50%
Activity (Vitis vinifera [9]): 19.8 umol/mol
Activity (Vitis vinifera [10]): 82.2 umol/mol
Activity (Vitis vinifera [11]): 27.7 umol/mol
inhibition at 168 h, 6000 µM [12]: 65%
Activity (Vitis vinifera [13]): Non-toxic
Activity (Vitis vinifera [14]): Non-toxic
inhibition at 168 h, 6000 µM [15]: 36%
Activity (Vitis vinifera [16]): 11.3 micromol/m2/s
Activity (Vitis vinifera [17]): 37 umol/mol
inhibition at 168 h, 30000 µM [18]: 38%
Activity (Vitis vinifera [19]): 0.01
Activity (Vitis vinifera [20]): Non-toxic
Activity (Vitis vinifera [21]): 7.6 micromol/m2/s
Activity (Vitis vinifera [22]): Non-toxic
Activity (Vitis vinifera [23]): 12.2 micromol/m2/s
inhibition at 168 h, 30000 µM (photosystem 2 [24]): 10%
Activity (Vitis vinifera [25]): 20%
Activity (Vitis vinifera [26]): Non-toxic
inhibition at 168 h, 1200 µM (photosystem 2 [27]): 10%
